Measurements taken from US20230123334A1, “AMINO LIPID COMPOUND, PREPARATION METHOD THEREFOR, AND APPLICATION THEREOF” (SHENZHEN SHENXIN BIOTECHNOLOGY CO., LTD., priority 2020, published 2023).

test system: HEK293 cells; experiment: Preliminary screening as mRNA vectors, EGFP mRNA transfection of HEK293 cells; type: cell-based; conditions: EGFP mRNA 50 ng per well, 96-well plates; percentage of GFP fluorescent cells relative to total number of cells (Hoechst)
Experimental: Cell line: HEK293 cells (ATCC CRL-1573™)
Medium: DMEM supplemented with 10% fetal bovine serum (Invitrogen)
Screening: cell transfection on 96-well plates
Detection (readout): percentage of the number of GFP fluorescent cells relative to the total number of cells (the total number of cells was determined using nucleus dye Hoechst). Lipofectamine2000 (Invitrogen) was used as the positive control.
Method: the experimental method was basically the same with Example 4, and the mass of EGFP mRNA (TriLink) for transfection was 50 ng per well.

| Structure (SMILES) | Absolute mRNA transfection efficiency in HEK293 cells |
| --- | --- |
| CCCCCCCCCCCSc1nc(NCCCCCC)nc(NCCCN(C)C)n1 [Compound D6S11N6] | 1.7% |
| CCCCCCCNc1nc(NCCCN2CCN(C)CC2)nc(SCCCCCC)n1 [Compound D9S6N7] | 2.6% |
| CCCCCCCCCCCCCCCCCCSc1nc(NCCCN2CCN(C)CC2)nc(SCCCCCC)n1 [Compound D9S6S18] | 62.8% |
| CCCCCCCCCNc1nc(NCCN(CC)CC)nc(SCCCCCCCC)n1 [Compound D7S8N9] | 9.5% |
| CCCCCCCSc1nc(NCCCCCC)nc(NCCN2CCN(C)CC2)n1 [Compound D5S7N6] | 1.9% |

test system: HEK293 cells; experiment: Preliminary screening as DNA vectors, GFP transfection of HEK293 cells; type: cell-based; conditions: amino lipid/DOPE liposome with 75 ng plasmid DNA (psin-EGFP-IRES-Puro); number of GFP-expressing cells divided by total nuclei (Hoechst)
Summary of the method: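 HEK293 cells in DMEM/10% FBS transfected with 75 ng EGFP plasmid per well complexed with amino lipid/DOPE liposomes in pH 5.6 sodium acetate. Hoechst nuclear stain added 20-24 h post-transfection, then cells cultured another 20-24 h. Confocal imaging gives GFP-positive cells as % of total nuclei.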

| Structure (SMILES) | Absolute DNA transfection efficiency in HEK293 cells |
| --- | --- |
| CCCCCCCCCCCCCNc1nc(NCCN2CCN(C)CC2)nc(SCCCCCCC)n1 [S7N13 D5] | 23.3% |
| CCCCCCCCCCCCCCCCSc1nc(NCCCCCCC)nc(NCCN2CCCC2)n1 [S16N7 D3] | 8.9% |
| CCCCCCCCCCCSc1nc(NCCN(C)C)nc(SCCCCCC)n1 [S6S11 D1] | 6.0% |
| CCCCCCCCCCCCCCCCCCSc1nc(NCCCCCCCCCCCCCCC)nc(NCCCN2CCOCC2)n1 [S18N15 D8] | 0.0% |
| CCCCCCCCCCCCCCCSc1nc(NCC2CCN(C)CC2)nc(SCCCCCC)n1 [S6S15 D10] | 34.5% |
| CCCCCCCCCCCCCCCCNc1nc(NCCN(CC)CC)nc(SCCCCCCCCCC)n1 [S10N16 D7] | 4.8% |
| CCCCCCCCCCCCCCCNc1nc(NCCN(CC)CC)nc(SCCCCCCCCCCCCCC)n1 [S14N15 D7] | 1.1% |
| CCCCCCCCCCCNc1nc(NCCN2CCCC2)nc(SCCCCCC)n1 [S6N11 D3] | 2.8% |
| CCCCCCCCCCCCN(CCCCCCCCCCCC)c1nc(NCCN2CCCC2)nc(SCCCCCCC)n1 [S7^2N12 D3] | 0.1% |
| CCCCCCCCCCCCCNc1nc(NCCN2CCN(C)CC2)nc(SCCCCCCCCCC)n1 [S10N13 D5] | 2.1% |
| CCCCCCCCCSc1nc(NCCCCCC)nc(NCCN(CC)CC)n1 [S9N6 D7] | 9.8% |
| CCCCCCCCCCCCCCCNc1nc(NCCCN(C)C)nc(SCCCCCCCCCCC)n1 [S11N15 D6] | 8.2% |
| CCCCCCCCCCCCCCCNc1nc(NCCN2CCN(C)CC2)nc(SCCCCCCCCC)n1 [S9N15 D5] | 16.1% |
| CCCCCCCCCCCCCCCCSc1nc(NCCCCCCCCC)nc(NCCN(C)C)n1 [S16N9 D1] | 7.5% |
| CCCCCCCCCCCCCCCCNc1nc(NCCCN2CCOCC2)nc(SCCCCCCCCCCC)n1 [S11N16 D8] | 0.4% |
| CCCCCCCCCCCCNc1nc(NCCCN(C)C)nc(SCCCCCC)n1 [S6N12 D6] | 6.0% |
| CCCCCCCCCSc1nc(NCCN2CCCC2)nc(SCCCCCC)n1 [S6S9 D3] | 6.9% |
| CCCCCCCCCNc1nc(NCCN2CCOCC2)nc(SCCCCCCCCC)n1 [S9N9 D2] | 24.0% |
| CCCCCCCCCCCCCCCNc1nc(NCCCN2CCOCC2)nc(SCCCCCCCCCCC)n1 [S11N15 D8] | 0.1% |
| CCCCCCCCCCCCCCCCSc1nc(NCCCCCCC)nc(NCC2CCN(C)CC2)n1 [S16N7 D10] | 3.4% |
| CCCCCCCCCCCCCNc1nc(NCC2CCN(C)CC2)nc(SCCCCCCCCCCCC)n1 [S12N13 D10] | 2.4% |
| CCCCCCSc1nc(NCCCN2CCN(C)CC2)nc(SCCCCCC)n1 [S6S6 D9] | 7.6% |
| CCCCCCCCCCCCCCCCCCSc1nc(NCCCCCCCCCCC)nc(NCCN2CCCC2)n1 [S18N11 D3] | 4.2% |
| CCCCCCCCCCCCCCCCSc1nc(NCCCCCCCCCCCC)nc(NCCN2CCCC2)n1 [S16N12 D3] | 3.9% |

| Structure (SMILES) | Absolute DNA transfection efficiency in HEK293 cells |
| --- | --- |
| CCCCCCCCCCCCCCCCSc1nc(NCCCCCC)nc(NCCN(C)C)n1 [S16N6 D1] | 8.0% |
| CCCCCCCCCCCCCCCCSc1nc(NCCCN(C)C)nc(SCCCCCC)n1 [S6S16 D6] | 0.4% |
| CCCCCCCCCCCNc1nc(NCCN(CC)CC)nc(SCCCCCCCCCC)n1 [S10N11 D7] | 5.0% |
| CCCCCCCCCCCCCCCCSc1nc(NCCCN(C)C)nc(SCCCCCCC)n1 [S7S16 D6] | 9.0% |
| CCCCCCCCCCCCCCCCCCSc1nc(NCCCCCC)nc(NCCCN2CCN(C)CC2)n1 [S18N6 D9] | 11.0% |
| CCCCCCCCCCCCCCCCNc1nc(NCCCN2CCOCC2)nc(SCCCCCCCC)n1 [S8N16 D8] | 8.2% |
| CCCCCCCCCCCCSc1nc(NCCCCCCCCCCC)nc(NCCCN2CCN(C)CC2)n1 [S12N11 D9] | 3.9% |
| CCCCCCCCCCCCCNc1nc(NCCN2CCCCC2)nc(SCCCCCCCC)n1 [S8N13 D4] | 3.8% |
| CCCCCCCCCCCCCCCCSc1nc(NCCCCCCCCCCCCC)nc(NCC2CCN(C)CC2)n1 [S16N13 D10] | 2.0% |
| CCCCCCCCCCCCCCCNc1nc(NCCCN(C)C)nc(SCCCCCCCCCCCCCCC)n1 [S15N15 D6] | 0.0% |
| CCCCCCCSc1nc(NCCN(CC)CC)nc(SCCCCCC)n1 [S6S7 D7] | 22.2% |
| CCCCCCCCCCCCCCCCCCSc1nc(NCCCCCCC)nc(NCCCN2CCN(C)CC2)n1 [S18N7 D9] | 9.3% |
| CCCCCCCCCCCCCCSc1nc(NCCCN2CCN(C)CC2)nc(SCCCCCCC)n1 [S7S14 D9] | 3.8% |
| CCCCCCCCCCCCCCSc1nc(NCCCN(C)C)nc(N(CCCCCCCCCCCC)CCCCCCCCCCCC)n1 [S14^2N12 D6] | 0.2% |
| CCCCCCCCCCCCCCSc1nc(NCCCCCCC)nc(NCCN2CCN(C)CC2)n1 [S14N7 D5] | 16.3% |
| CCCCCCCCCCCCCCCCNc1nc(NCCCN2CCN(C)CC2)nc(SCCCCCC)n1 [S6N16 D9] | 20.6% |
| CCCCCCCCCCCCCCCCSc1nc(NCCCCCCCCC)nc(NCCCN(C)C)n1 [S16N9 D6] | 11.7% |
| CCCCCCCCCCCCCCCCCCNc1nc(NCCCN2CCN(C)CC2)nc(SCCCCCCCCCCC)n1 [S11N18 D9] | 9.3% |
| CCCCCCCCCCCCCCSc1nc(NCCCCCCCCCCCC)nc(NCC2CCN(C)CC2)n1 [S14N12 D10] | 5.8% |
| CCCCCCCCNc1nc(NCCN2CCCCC2)nc(SCCCCCCCC)n1 [S8N8 D4] | 2.9% |
| CCCCCCCCCCCCNc1nc(NCCN2CCN(C)CC2)nc(SCCCCCCCCCCC)n1 [S11N12 D5] | 14.1% |
| CCCCCCCCCCCCCCCCSc1nc(NCCCCCCC)nc(NCCCN2CCOCC2)n1 [S16N7 D8] | 12.0% |
| CCCCCCCCSc1nc(NCCN2CCCCC2)nc(SCCCCCCC)n1 [S7S8 D4] | 7.0% |
| CCCCCCCCCSc1nc(NCCCCCCCC)nc(NCCCN(C)C)n1 [S9N8 D6] | 17.9% |
